≈ marks a conversion by molar mass, not a printed value. Read-outs that look alike come from different tables or passages of the source. Numbered stars: 1 amine (or outer) side, 2 acyl side, 3 side chain; on linkers, the order of the positions; unused ones are H or OH. Bridge positions count the residues as written; N and C are the ends. Square brackets hold non-standard residues; d marks the D form. Peptide text beside a SMILES is read from it. * marks the point of attachment. X1 = C[C@@H](O)[C@@H](CS[*:1])N[*:2]; dGly(nOct) = CCCCCCCC[C@@H](N)C(=O)O; Hica(2S) = CC(C)C[C@H](O)C(=O)O; Octanoyl = CCCCCCCC(=O)*; Dab = NCC[C@H](N)C(=O)O
Legend:
E. coli ATCC 25922 = experiment: microbe, parasite or virus in culture; type: cell-based; conditions: for MIC: resistance profile of strain E. coli ATCC 25922, Table 3; for antibacterial activity (MIC): ATCC 25922
Description: (§1) The antibacterial activity of the polymyxin lipopeptides was measured at ISGlobal following the microdilution test to determine the Minimal Inhibitory Concentrations (MIC) in sterile 96-well polypropilene plates. The concentration range was 32 a […] in Iso-Sensitest broth (Oxoid, ThermoFisher). The results were carried out in triplicate and the highest MIC is the one shown. Bacterial strains were grown in blood agar plates at 37° C. for 17 h. Fresh colonies were used to prepare a McFarland 0.5 solution that was finally added to the plates at 1 to 100 dilution
(§2) Samples of sensitive and multi-drug resistant bacteria were: E. coli ATCC 25922 E. coli MB1410; K. pneumoniae MB674; P. aeruginosa ATCC 27853; P. aeruginosa 36A.

E. coli MB1410 = experiment: microbe, parasite or virus in culture; type: cell-based; conditions: for antibacterial activity (MIC): MB1410
Description: as §1, §2

P. aeruginosa 36A = experiment: microbe, parasite or virus in culture; type: cell-based; conditions: for antibacterial activity (MIC): 36A
Description: as §1, §2

P. aeruginosa ATCC 27853 = experiment: microbe, parasite or virus in culture; type: cell-based; conditions: for MIC: resistance profile of strain P. aeruginosa ATCC 27853, Table 3; for antibacterial activity (MIC): ATCC 27853
Description: as §1, §2

K. pneumoniae MB674 = type: cell-based; conditions: MB674
Description: as §1, §2

Swiss CD-1 female mice = experiment: Nephrotoxicity study, histopathological scoring of kidney lesions; type: in vivo; set-up: key to Group Score (GS): mean of per-animal summed 0-4 lesion scores; higher = more nephrotoxic; key to Animal Score (AS), Partial AS: sum of 0-4 lesion parameter scores; higher = more nephrotoxic; conditions: for Animal Score (AS), Partial AS: sum over all mice
Description: Swiss CD-1 female mice weighing approximately 20-24 g (JANVIER Labs) were used, housed in an individually ventilated cage system under specific pathogen-free conditions, and water and food supplied ad libitum. This study plan and the conduct of the study were subjected to review by the Scientific Park of Barcelona Ethical Review Process with the current study procedure Code CEEA (AR) 9377-P2. Mice were administered at a dose of 12 mg/Kg every 2 hours for a total of 6 administrations (total dose 72 mg/Kg), unless otherwise stated. After 20 h, animals were anesthesized with isoflurane, kidneys extracted and prepared for histopathological evaluation, and finally animales were sacrificed. Kidney lesions (tubule dilation, necrosis, tubule casts, cell vacuolization, cell desquamation, and cell swelling) were quantified by microscopical observation (see for instance, Roberts, ACS Infect. Dis., 2015, 1, 568). Each one of these parameters was scored with values from 0 to 4 for each animal, as a global result of observations in kidney. Partial scores have been added up to obtain a final score for each animal (Animal Score, AS). The mean of animal score has been obtained to define the Group Score (GS). The higher the score, the more nephrotoxic a compound is. The nephrotoxicity score has been determined as according to the following table of approximated values: […]

[1] = Escherichia coli, ATCC25922, read-out: MIC
[2] = Pseudomonas aeruginosa, ATCC27853, read-out: MIC
[3] = Table 6, 12 mg/Kg every 2 hours × 6, subcutaneous, total 72 mg/Kg
[4] = Table 6, mean of animal scores, 12 mg/Kg every 2 hours × 6, subcutaneous, total 72 mg/Kg
[5] = Table 6, sum of mouse scores, 12 mg/Kg every 2 hours × 6, subcutaneous, total 72 mg/Kg
[6] = Table 7, 8 mg/Kg every 2 hours × 6, total 48 mg/Kg

## NCC[C@H](O)C(=O)N[C@@H]1C[C@H](N)[C@@H](O[C@H]2O[C@H](CN)[C@@H](O)[C@H](O)[C@H]2O)[C@H](O)[C@H]1O[C@H]1O[C@H](CO)[C@@H](O)[C@H](N)[C@H]1O [Ak, Amikacin]
E. coli ATCC 25922; [1]
  MIC: 2 µg/mL (≈ 3.42 µM)
E. coli MB1410; Escherichia coli, resistance profile of strain E. coli MB1410, Table 3, read-out: MIC
  MIC: 6 µg/mL (≈ 10.2 µM)
P. aeruginosa 36A; Pseudomonas aeruginosa, resistance profile of strain P. aeruginosa 36A, Table 3, read-out: MIC
  MIC: 2 µg/mL (≈ 3.42 µM)
P. aeruginosa ATCC 27853; [2]
  MIC: 4 µg/mL (≈ 6.83 µM)

## CC(C)(O/N=C(\C(=O)N[C@@H]1C(=O)N2C(C(=O)[O-])=C(C[n+]3ccccc3)CS[C@H]12)c1csc(N)n1)C(=O)O [CAZ, Ceftacidime]
E. coli ATCC 25922
  MIC: 0.25 µg/mL (≈ 0.457 µM)
P. aeruginosa ATCC 27853
  MIC: 0.5 µg/mL (≈ 0.915 µM)

## CO/N=C(\C(=O)N[C@@H]1C(=O)N2C(C(=O)O)=C(COC(C)=O)CS[C@H]12)c1csc(N)n1 [CTX, Cefotaxime]
E. coli ATCC 25922; [1]
  MIC: 0.5 µg/mL (≈ 1.1 µM)

## O=C(O)c1cn(C2CC2)c2cc(N3CCNCC3)c(F)cc2c1=O [Cip, Ciprofloxacin]
E. coli ATCC 25922; [1]
  MIC: 0.06 µg/mL (≈ 0.181 µM)
P. aeruginosa ATCC 27853; [2]
  MIC: 0.25 µg/mL (≈ 0.754 µM)

## CCCCCCCC[C@@H](N)C(=O)N[C@H](C(=O)N[C@@H](CCN)C(=O)N[C@H]1CSSC[C@H]([C@@H](C)O)NC(=O)[C@H](CCN)NC(=O)[C@H](CCN)NC(=O)[C@H](CC(C)C)NC(=O)[C@@H](Cc2ccccc2)NC(=O)[C@H](CCN)NC1=O)[C@@H](C)O [Example 5, DAdec-Thr-Dab-cyclo(S-S)[Cys-Dab-DPhe-Leu-Dab-Dab-Ttr]] (H-[dGly(nOct)]T[Dab]C[Dab][dF]L[Dab][Dab]; linker 4-C via X1; N-terminus assumed)
E. coli ATCC 25922
  antibacterial activity (MIC): 1 µg/mL
E. coli MB1410
  antibacterial activity (MIC): 1 µg/mL
P. aeruginosa 36A
  antibacterial activity (MIC): 2 µg/mL
P. aeruginosa ATCC 27853
  antibacterial activity (MIC): 2 µg/mL
K. pneumoniae MB674
  antibacterial activity (MIC): 1 µg/mL
Swiss CD-1 female mice; [3]
  Mice found dead: None
  Animal Score (AS), Partial AS: 3
Swiss CD-1 female mice; [4]
  Group Score (GS): 0.4
Swiss CD-1 female mice; [5]
  Cell desquamation, Partial AS: 0
  Cell vacuolization, Partial AS: 0
  Cloudy swelling, Partial AS: 3
  Tubular casts, Partial AS: 0
  Tubular dilation, Partial AS: 0
  Tubular necrosis, Partial AS: 0
Swiss CD-1 female mice; [6]
  AS, Partial AS: 0
  Cell vacuolization, Partial AS: 0
  Cloudy swelling, Partial AS: 0
  Group Score (GS): 0
  Mice found dead: None
  Tubular casts, Partial AS: 0
  Tubular dilation, Partial AS: 0
  Tubular necrosis, Partial AS: 0

## CCCCCCCC[C@@H](N)C(=O)N[C@H](C(=O)N[C@@H](CCN)C(=O)N[C@H]1CSSC[C@H]([C@@H](C)O)NC(=O)[C@H](CCN)NC(=O)[C@H](CCN)NC(=O)[C@H](CC(C)C)NC(=O)[C@@H](CC(C)C)NC(=O)[C@H](CCN)NC1=O)[C@@H](C)O [Example 6, DAdec-Thr-Dab-cyclo(S-S)[Cys-Dab-DLeu-Leu-Dab-Dab-Ttr]] (H-[dGly(nOct)]T[Dab]C[Dab][dL]L[Dab][Dab]; linker 4-C via X1; N-terminus assumed)
E. coli ATCC 25922
  antibacterial activity (MIC): 2 µg/mL
E. coli MB1410
  antibacterial activity (MIC): 0.5 µg/mL
P. aeruginosa 36A
  antibacterial activity (MIC): 0.5 µg/mL
P. aeruginosa ATCC 27853
  antibacterial activity (MIC): 1 µg/mL
K. pneumoniae MB674
  antibacterial activity (MIC): 0.5 µg/mL
Swiss CD-1 female mice; [3]
  Mice found dead: 2
  Animal Score (AS), Partial AS: 6
Swiss CD-1 female mice; [4]
  Group Score (GS): 1
Swiss CD-1 female mice; [5]
  Cell desquamation, Partial AS: 0
  Cell vacuolization, Partial AS: 0
  Cloudy swelling, Partial AS: 5
  Tubular casts, Partial AS: 1
  Tubular dilation, Partial AS: 0
  Tubular necrosis, Partial AS: 0
Swiss CD-1 female mice; [6]
  AS, Partial AS: 1
  Cell vacuolization, Partial AS: 0
  Cloudy swelling, Partial AS: 1
  Group Score (GS): 0.2
  Mice found dead: None
  Tubular casts, Partial AS: 0
  Tubular dilation, Partial AS: 0
  Tubular necrosis, Partial AS: 0

## CCCCCCCC(=O)N[C@@H](CCN)C(=O)N[C@H](C(=O)N[C@@H](CCN)C(=O)N[C@H]1CSSC[C@H]([C@@H](C)O)NC(=O)[C@H](CCN)NC(=O)[C@H](CCN)NC(=O)[C@H](CC(C)C)OC(=O)[C@@H](CC(C)C)NC(=O)[C@H](CCN)NC1=O)[C@@H](C)O [Example 7, Octanoyl-Dab-Thr-Dab-cyclo(S-S)[Cys-Dab-DLeu-OLe-Dab-Dab-Ttr]] (Octanoyl-[Dab]T[Dab]C[Dab][dL][Hica(2S)][Dab][Dab]; linker 4-C via X1)
E. coli ATCC 25922
  antibacterial activity (MIC): 8 µg/mL
E. coli MB1410
  antibacterial activity (MIC): 4 µg/mL
P. aeruginosa 36A
  antibacterial activity (MIC): 4 µg/mL
P. aeruginosa ATCC 27853
  antibacterial activity (MIC): 2 µg/mL
K. pneumoniae MB674
  antibacterial activity (MIC): 1 µg/mL
